Source: patent publication US20190029987A1, “DIMETHYL FUMARATE (DMF) FOR PREVENTION OR TREATMENT OF GOUT, ACNE, DIABETES, VITILIGO AND/OR PYODERMA GANGRENOSUM” (UNIVERSITAT ZURICH, priority 2016, published 2019)
Peptide text beside a SMILES is read from it. * marks the point of attachment. Cbz = O=C(OCc1ccccc1)*

What was measured:
Nrf2 [1] = experiment: UVB-induced Nrf2 degradation in HPKs (Western blot); type: cell-based, human; conditions: 1 μM for 10 min, harvested after 1 h, FIG. 7D
Source text: Next, the inventors investigated the activity of Nrf2 upon activation of the NLRP3 inflammasome, since inflammasome activation is ROS-dependent. […] This is surprising, since UVB irradiation is a strong inducer of ROS production and it can be anticipated that the cells would benefit from Nrf2 activation. UVB-induced secretion by HPKs requires expression of NLRP1 and NLRP3 [21]. Both nigericin and MSU crystals are considered as “true” NLRP3 activators, but HPKs cannot phagocytose MSU crystals. Therefore, the inventors treated HPKs with nigericin only and THP-1 cells with either of these NLRP3 activators. […] Therefore, NLRP3 inflammasome activation most likely induces Nrf2 protein degradation. […] However, inflammasome activation-induced Nrf2 degradation was blocked upon ablation of ASC or NLRP3 expression (FIG. 4G) and upon treatment of cells with the ROS blocker PDTC or the Ca2+ chelator BAPTA-AM (Supplementary FIG. 2D). […] However, inflammasome function was not impaired, as reflected by normal processing of pro-IL-18 (FIG. 4H). Although Keap1 expression is partially dispensable for Nrf2 degradation by inflammasome activation, the transcription factor is directed to the proteasome under these conditions, since Nrf2 degradation was inhibited by the proteasome inhibitor MG132 (FIG. 4I and FIG. 7D).
FIG. 7: (A-C) HPKs were transfected with siRNAs for 3 d as indicated. Scrambled (scr) siRNA and siRNA targeting the unrelated vascular endothelial growth factor (VEGF) served as controls. Western blots of (A) total lysates or (B) nuclear and cytoplasmic lysates and (C) qRT-PCR for expression of target gene expression. (D) HPKs were treated with MG132 (1 μM), PDTC (500 μM) or BAPTA-AM (12.5 μM) for 10 min and harvested (before UV) or irradiated with UVB and harvested after 1 h. Western blots showing expression of Nrf2. (E) Differentiated and primed THP-1 cells were pretreated with cycloheximide (CHX, 30 μg/ml) for 1 h before priming cells with upLPS overnight. Western blots show expression of the indicated proteins. […] Statistics: (C) Mann-Whitney test, related to scr control. *P≤0.05

Nrf2 [2] = experiment: Nigericin-induced Nrf2 degradation in THP-1 cells (Western blot); type: cell-based, human; conditions: THP-1, nigericin 5 μM, 1 μM added after 1 h, harvested after 2.5 h, FIG. 4I
Source text: Next, the inventors investigated the activity of Nrf2 upon activation of the NLRP3 inflammasome, since inflammasome activation is ROS-dependent. […] This is surprising, since UVB irradiation is a strong inducer of ROS production and it can be anticipated that the cells would benefit from Nrf2 activation. UVB-induced secretion by HPKs requires expression of NLRP1 and NLRP3 [21]. Both nigericin and MSU crystals are considered as “true” NLRP3 activators, but HPKs cannot phagocytose MSU crystals. Therefore, the inventors treated HPKs with nigericin only and THP-1 cells with either of these NLRP3 activators. […] Therefore, NLRP3 inflammasome activation most likely induces Nrf2 protein degradation. […]
(A-C) HPKs were irradiated with (A) UVB or treated with (B) nigericin (5 μM) and cells and supernatants were harvested at different time points as indicated. […] (C) Expression of Nrf2 and Nrf2 target genes was determined by qRT-PCR. […] Cells and supernatants were harvested at different time points as indicated and analysed for (D) expression and activation of the proteins as indicated by Western blot and (E) expression of Nrf2 and Nrf2 target genes by qRT-PCR. […] Cells were harvested after 1 h or 5 h, and lysates were analysed for the expression of the indicated proteins by Western blot. […] (G) Nrf2 expression related to the indicated background band was quantified from the Western blot. […]

Compound: CC(C)C[C@@H](C=O)NC(=O)[C@H](CC(C)C)NC(=O)[C@H](CC(C)C)NC(=O)OCc1ccccc1 [MG132] (Cbz-Leu-Leu-Leu-aldehyde)
- inflammasome activation-induced Nrf2 degradation (Nrf2 [1]): inhibited
- inflammasome activation-induced Nrf2 degradation (Nrf2 [2]): inhibited
